# Paper PMC9090415, “Discovery of small molecule inhibitors of Plasmodium falciparum apicoplast DNA polymerase” (Journal of Enzyme Inhibition and Medicinal Chemistry, 2022)
# Target: P. falciparum apicoplast DNA polymerase (Pf-apPOL) (Plasmodium falciparum, UniProt Q8ILY1)
# Assay: Fluorescence-based high-throughput DNA polymerase assay (molecular beacon), primary screen and dose-response;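 as to % inhibition ApPOL 90': test concentration in µM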;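 as to % inhibition Apol 40': compound concentration given in µM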;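 as to % inhibition apPOL 180': test concentration in µM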
# Type: biochemical
# Conditions: for DNA Pol: 90 min, 10 µM
# In short: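 Single-point screening used 10 µM compound with 20 nM polymerase, 20 nM hairpin substrate and 6 µM dNTPs for 90 min at 25 °C. Confirmatory titrations (2.5–80 µM) followed fluorescence at three times, and IC50 was derived from a fit including a cooperativity term n.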
# [1] = 'DNA Pol' of the 186 hits list (primary screen value)
# Chain of P. falciparum apicoplast DNA polymerase (Pf-apPOL) (Q8ILY1 entry or part of it): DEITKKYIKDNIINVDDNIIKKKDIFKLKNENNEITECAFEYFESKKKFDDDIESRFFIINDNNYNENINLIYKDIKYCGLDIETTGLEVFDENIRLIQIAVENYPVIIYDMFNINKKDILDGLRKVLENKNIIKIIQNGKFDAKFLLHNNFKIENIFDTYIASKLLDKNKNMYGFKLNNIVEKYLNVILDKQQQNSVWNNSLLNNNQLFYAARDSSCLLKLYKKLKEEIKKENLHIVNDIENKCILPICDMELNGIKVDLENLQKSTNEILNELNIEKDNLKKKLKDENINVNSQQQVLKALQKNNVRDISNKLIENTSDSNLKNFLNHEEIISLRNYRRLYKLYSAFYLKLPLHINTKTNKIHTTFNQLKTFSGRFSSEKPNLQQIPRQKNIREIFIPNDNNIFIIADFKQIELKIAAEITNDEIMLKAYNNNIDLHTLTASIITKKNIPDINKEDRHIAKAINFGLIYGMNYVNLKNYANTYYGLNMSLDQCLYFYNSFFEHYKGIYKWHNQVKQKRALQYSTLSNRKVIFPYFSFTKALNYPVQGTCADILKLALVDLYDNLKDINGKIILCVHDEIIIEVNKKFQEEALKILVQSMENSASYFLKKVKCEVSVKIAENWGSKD
structure (smiles),measurement,setting,value
"Cc1ccccc1C(=O)N1CCc2c(nc3cc(-c4ccccc4)[nH]n3c2=O)C1 [Molecule 41, Cc1ccccc1C(=O)N1CCc2c(C1)nc1n(c2=O)[nH]c(c1)c1ccccc1]",DNA Pol,[1],47
same,DNA Pol,DNA Pol (primary screen value),47
same,% inhibition Apo pol 10',"DRC-1, concentration 2.5",6.184%
same,% inhibition Apo pol 10',"DRC-1, concentration 5",10.1754%
same,% inhibition Apo pol 10',"DRC-1, concentration 10",45.445%
same,% inhibition Apo pol 10',"DRC-1, concentration 20",74.5975%
same,% inhibition Apo pol 10',"DRC-1, concentration 40",80.8347%
same,% inhibition Apo pol 10',"DRC-1, concentration 80",67.5135%
same,% inhibition Apol 90',"DRC-1, concentration 2.5",1.828%
same,% inhibition Apol 90',"DRC-1, concentration 5",3.445%
same,% inhibition Apol 90',"DRC-1, concentration 10",31.8176%
same,% inhibition Apol 90',"DRC-1, concentration 20",59.5671%
same,% inhibition Apol 90',"DRC-1, concentration 40",74.5448%
same,% inhibition Apol 90',"DRC-1, concentration 80",71.589%
same,% inhibition apPOL 180',"DRC-1, concentration 2.5",-1.511%
same,% inhibition apPOL 180',"DRC-1, concentration 5",-3.248%
same,% inhibition apPOL 180',"DRC-1, concentration 10",20.9007%
same,% inhibition apPOL 180',"DRC-1, concentration 20",43.9765%
same,% inhibition apPOL 180',"DRC-1, concentration 40",64.8377%
same,% inhibition apPOL 180',"DRC-1, concentration 80",65.5415%
same,% inhibition Apo pol 5',"DRC-2, concentration 2.5",7%
same,% inhibition Apo pol 5',"DRC-2, concentration 5",8%
same,% inhibition Apo pol 5',"DRC-2, concentration 10",20%
same,% inhibition Apo pol 5',"DRC-2, concentration 20",17%
same,% inhibition Apo pol 5',"DRC-2, concentration 40",46%
same,% inhibition Apo pol 5',"DRC-2, concentration 80",29%
same,% inhibition Apol 40',"DRC-2, concentration 2.5",9%
same,% inhibition Apol 40',"DRC-2, concentration 5",5.58%
same,% inhibition Apol 40',"DRC-2, concentration 10",22%
same,% inhibition Apol 40',"DRC-2, concentration 20",18%
same,% inhibition Apol 40',"DRC-2, concentration 40",61%
same,% inhibition Apol 40',"DRC-2, concentration 80",54%
same,% inhibition ApPOL 90',"DRC-2, concentration 2.5",8%
same,% inhibition ApPOL 90',"DRC-2, concentration 5",5%
same,% inhibition ApPOL 90',"DRC-2, concentration 10",21%
same,% inhibition ApPOL 90',"DRC-2, concentration 20",17%
same,% inhibition ApPOL 90',"DRC-2, concentration 40",61%
same,% inhibition ApPOL 90',"DRC-2, concentration 80",59%
same,% inhibition apPOL 180',"DRC-2, concentration 2.5",4.5%
same,% inhibition apPOL 180',"DRC-2, concentration 5",1.21%
same,% inhibition apPOL 180',"DRC-2, concentration 10",16%
same,% inhibition apPOL 180',"DRC-2, concentration 20",9%
same,% inhibition apPOL 180',"DRC-2, concentration 40",55%
same,% inhibition apPOL 180',"DRC-2, concentration 80",58%
"O=C(Cn1ccc2c(=O)[nH]ccc21)Nc1cc(F)ccc1F [Molecule 42, O=C(Cn1ccc2c1cc[nH]c2=O)Nc1cc(F)ccc1F]",DNA Pol,[1],40
same,DNA Pol,DNA Pol (primary screen value),40
same,% inhibition Apo pol 10',"DRC-1, concentration 2.5",-0.6304%
same,% inhibition Apo pol 10',"DRC-1, concentration 5",13.4677%
same,% inhibition Apo pol 10',"DRC-1, concentration 10",49.4515%
same,% inhibition Apo pol 10',"DRC-1, concentration 20",62.1247%
same,% inhibition Apo pol 10',"DRC-1, concentration 40",77.421%
same,% inhibition Apo pol 10',"DRC-1, concentration 80",76.1541%
same,% inhibition Apol 90',"DRC-1, concentration 2.5",-3.25%
same,% inhibition Apol 90',"DRC-1, concentration 5",4.148%
same,% inhibition Apol 90',"DRC-1, concentration 10",35.5527%
same,% inhibition Apol 90',"DRC-1, concentration 20",52.2284%
same,% inhibition Apol 90',"DRC-1, concentration 40",71.4461%
same,% inhibition Apol 90',"DRC-1, concentration 80",77.7263%
same,% inhibition apPOL 180',"DRC-1, concentration 2.5",-7.978%
same,% inhibition apPOL 180',"DRC-1, concentration 5",-3.837%
same,% inhibition apPOL 180',"DRC-1, concentration 10",18.2291%
same,% inhibition apPOL 180',"DRC-1, concentration 20",34.5428%
same,% inhibition apPOL 180',"DRC-1, concentration 40",57.1907%
same,% inhibition apPOL 180',"DRC-1, concentration 80",71.3539%
same,% inhibition Apo pol 5',"DRC-2, concentration 2.5",3.65%
same,% inhibition Apo pol 5',"DRC-2, concentration 5",11%
same,% inhibition Apo pol 5',"DRC-2, concentration 10",31%
same,% inhibition Apo pol 5',"DRC-2, concentration 20",40%
same,% inhibition Apo pol 5',"DRC-2, concentration 40",37%
same,% inhibition Apo pol 5',"DRC-2, concentration 80",27%
same,% inhibition Apol 40',"DRC-2, concentration 2.5",2.11%
same,% inhibition Apol 40',"DRC-2, concentration 5",13%
same,% inhibition Apol 40',"DRC-2, concentration 10",36%
same,% inhibition Apol 40',"DRC-2, concentration 20",54%
same,% inhibition Apol 40',"DRC-2, concentration 40",58%
same,% inhibition Apol 40',"DRC-2, concentration 80",54%
same,% inhibition ApPOL 90',"DRC-2, concentration 2.5",0.827%
same,% inhibition ApPOL 90',"DRC-2, concentration 5",10%
same,% inhibition ApPOL 90',"DRC-2, concentration 10",34%
same,% inhibition ApPOL 90',"DRC-2, concentration 20",54%
same,% inhibition ApPOL 90',"DRC-2, concentration 40",60%
same,% inhibition ApPOL 90',"DRC-2, concentration 80",59%
same,% inhibition apPOL 180',"DRC-2, concentration 2.5",-5%
same,% inhibition apPOL 180',"DRC-2, concentration 5",4.53%
same,% inhibition apPOL 180',"DRC-2, concentration 10",24%
same,% inhibition apPOL 180',"DRC-2, concentration 20",46%
same,% inhibition apPOL 180',"DRC-2, concentration 40",59%
same,% inhibition apPOL 180',"DRC-2, concentration 80",62%
